Literature values as cited in patent publication US12274789B2, “Oral compositions comprising methylprednisolone sodium succinate” (LABOMED PHARMACEUTICAL COMPANY S.A., priority 2018, dated 2025).

Details: versus prednisolone

## C[C@H]1C[C@@H]2[C@H]([C@@H](O)C[C@@]3(C)[C@H]2CC[C@]3(O)C(=O)COC(=O)CCC(=O)[O-])[C@@]2(C)C=CC(=O)C=C12.[Na+] [methylprednisolone sodium succinate, pregna-1,4-diene-3,20dione,21-(3-carboxy-1-oxopropoxy)-11,17-dihydroxy-6-methyl-monosodium salt, (6α, 11β)]
  anti-inflammatory potency, ratio to prednisolone: 5 to 4
